Data reported in ChEMBL document CHEMBL1201862, “PubChem BioAssay data set” (2004).
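Step 1: Grow cells in 96-well plates. Step 2: Expose to compound for 48 hours at 5 concentrations. Step 3: Interpolate endpoints linearly; if unreached, use highest concentration. At the GI50, growth is halved.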 The source made the active and inactive calls. Cut-off read from the data, not from the text of the source: active = GI50 up to about 1.1 µM and inactive = higher.

How the values were obtained:
Assay in all cases: DTP human tumour cell line panel, 48 h
MDA-N = test system: MDA-N
HT-29 = test system: HT-29
HOP-92 = test system: HOP-92
NCI-H522 = test system: NCI-H522
OVCAR-5 = test system: OVCAR-5
NCI-H226 = test system: NCI-H226
M14 = test system: M14
HOP-62 = test system: HOP-62
HCT-15 = test system: HCT-15
MOLT-4 = test system: MOLT-4
SF-268 = test system: SF-268
T47D = test system: T47D
IGROV-1 = test system: IGROV-1
SK-MEL-5 = test system: SK-MEL-5
SF-539 = test system: SF-539
TK-10 = test system: TK-10
UACC-257 = test system: UACC-257
CCRF-CEM = test system: CCRF-CEM
HL-60 = test system: HL-60
EKVX = test system: EKVX
ACHN = test system: ACHN
CAKI-1 = test system: CAKI-1
U-251 = test system: U-251
LOX IMVI = test system: LOX IMVI
OVCAR-8 = test system: OVCAR-8
MCF7 = test system: MCF7
BT-549 = test system: BT-549
SW-620 = test system: SW-620
OVCAR-4 = test system: OVCAR-4
A498 = test system: A498
DU-145 = test system: DU-145
A549 = test system: A549
RPMI-8226 = test system: RPMI-8226
SN12C = test system: SN12C
SK-OV-3 = test system: SK-OV-3
OVCAR-3 = test system: OVCAR-3
786-0 = test system: 786-0
KM12 = test system: KM12
SNB-75 = test system: SNB-75
K562 = test system: K562
NCI/ADR-RES = test system: NCI/ADR-RES
SR = test system: SR
MDA-MB-231 = test system: MDA-MB-231
SK-MEL-28 = test system: SK-MEL-28
Malme-3M = test system: Malme-3M
Hs-578T = test system: Hs-578T
NCI-H23 = test system: NCI-H23
MDA-MB-435 = test system: MDA-MB-435
UO-31 = test system: UO-31
UACC-62 = test system: UACC-62
NCI-H460 = test system: NCI-H460
HCT-116 = test system: HCT-116
PC-3 = test system: PC-3
SF-295 = test system: SF-295
COLO 205 = test system: COLO 205
SNB-19 = test system: SNB-19
SK-MEL-2 = test system: SK-MEL-2
RXF 393 = test system: RXF 393
HCC 2998 = test system: HCC 2998

Cc1ccc(N)cc1.O=S(=O)(O)/C(=C\c1ccccc1)c1ccccc1
GI50 (MDA-N): > 100 µM (inactive) | GI50 (HT-29): > 100 µM (inactive) | GI50 (HOP-92): > 100 µM (inactive) | GI50 (NCI-H522): > 100 µM (inactive) | GI50 (OVCAR-5): > 100 µM (inactive) | GI50 (NCI-H226): > 100 µM (inactive) | GI50 (M14): > 100 µM (inactive) | GI50 (HOP-62): > 100 µM (inactive) | GI50 (HCT-15): > 100 µM | GI50 (MOLT-4): > 100 µM (inactive) | GI50 (SF-268): > 100 µM (inactive) | GI50 (T47D): > 100 µM (inactive) | GI50 (IGROV-1): > 100 µM (inactive) | GI50 (SK-MEL-5): 93.3 µM (inactive) | GI50 (SF-539): > 100 µM (inactive) | GI50 (TK-10): > 100 µM (inactive) | GI50 (UACC-257): > 100 µM (inactive) | GI50 (CCRF-CEM): > 100 µM (inactive) | GI50 (HL-60): 53.2 µM (inactive) | GI50 (EKVX): > 100 µM (inactive) | GI50 (ACHN): > 100 µM (inactive) | GI50 (CAKI-1): > 100 µM (inactive) | GI50 (U-251): > 100 µM (inactive) | GI50 (LOX IMVI): > 100 µM (inactive) | GI50 (OVCAR-8): > 100 µM (inactive) | GI50 (MCF7): > 100 µM (inactive) | GI50 (BT-549): > 100 µM (inactive) | GI50 (SW-620): > 100 µM (inactive) | GI50 (OVCAR-4): > 100 µM (inactive) | GI50 (A498): > 100 µM (inactive) | GI50 (DU-145): > 100 µM (inactive) | GI50 (A549): > 100 µM (inactive) | GI50 (RPMI-8226): > 100 µM (inactive) | GI50 (SN12C): > 100 µM (inactive) | GI50 (SK-OV-3): > 100 µM (inactive) | GI50 (OVCAR-3): > 100 µM (inactive) | GI50 (786-0): > 100 µM (inactive) | GI50 (KM12): 71.8 µM (inactive) | GI50 (SNB-75): > 100 µM (inactive) | GI50 (K562): > 100 µM (inactive) | GI50 (NCI/ADR-RES): > 100 µM (inactive) | GI50 (SR): > 100 µM (inactive) | GI50 (MDA-MB-231): > 100 µM (inactive) | GI50 (SK-MEL-28): > 100 µM (inactive) | GI50 (Malme-3M): > 100 µM (inactive) | GI50 (Hs-578T): > 100 µM (inactive) | GI50 (NCI-H23): > 100 µM (inactive) | GI50 (MDA-MB-435): > 100 µM (inactive) | GI50 (UO-31): 70.6 µM (inactive) | GI50 (UACC-62): 44 µM (inactive) | GI50 (NCI-H460): > 100 µM (inactive) | GI50 (HCT-116): > 100 µM (inactive) | GI50 (PC-3): > 100 µM (inactive) | GI50 (SF-295): > 100 µM (inactive) | GI50 (COLO 205): > 100 µM (inactive) | GI50 (SNB-19): > 100 µM (inactive) | GI50 (SK-MEL-2): > 100 µM (inactive) | GI50 (RXF 393): > 100 µM (inactive)

N#Cc1c(Cl)cccc1Oc1ccc(S(=O)(=O)N/C(=N\O)Nc2ccc(Cl)cc2)cc1
GI50 (MDA-N): 16.4 µM (inactive) | GI50 (HT-29): 17.3 µM (inactive) | GI50 (HOP-92): 11 µM (inactive) | GI50 (NCI-H522): 18 µM (inactive) | GI50 (OVCAR-5): 19.3 µM (inactive) | GI50 (NCI-H226): 24.8 µM (inactive) | GI50 (M14): 15.7 µM (inactive) | GI50 (HOP-62): 17.5 µM (inactive) | GI50 (HCT-15): 17.3 µM | GI50 (MOLT-4): 18.4 µM (inactive) | GI50 (SF-268): 19.9 µM (inactive) | GI50 (T47D): 13.2 µM (inactive) | GI50 (IGROV-1): 16.3 µM (inactive) | GI50 (SK-MEL-5): 17.2 µM (inactive) | GI50 (SF-539): 17.7 µM (inactive) | GI50 (TK-10): 16.6 µM (inactive) | GI50 (UACC-257): 16.9 µM (inactive) | GI50 (HCC 2998): 14.7 µM (inactive) | GI50 (CCRF-CEM): 18.9 µM (inactive) | GI50 (HL-60): 12.1 µM (inactive) | GI50 (EKVX): 15.5 µM (inactive) | GI50 (ACHN): 15.6 µM (inactive) | GI50 (CAKI-1): 15.5 µM (inactive) | GI50 (U-251): 17 µM (inactive) | GI50 (LOX IMVI): 16 µM (inactive) | GI50 (OVCAR-8): 18 µM (inactive) | GI50 (MCF7): 17.1 µM (inactive) | GI50 (BT-549): 16.4 µM (inactive) | GI50 (SW-620): 17.6 µM (inactive) | GI50 (OVCAR-4): 14.8 µM (inactive) | GI50 (A498): 15.3 µM (inactive) | GI50 (DU-145): 18.8 µM (inactive) | GI50 (A549): 16.8 µM (inactive) | GI50 (RPMI-8226): 30.4 µM (inactive) | GI50 (SN12C): 14.8 µM (inactive) | GI50 (OVCAR-3): 15.8 µM (inactive) | GI50 (786-0): 13.6 µM (inactive) | GI50 (KM12): 17.2 µM (inactive) | GI50 (K562): 24.2 µM (inactive) | GI50 (NCI/ADR-RES): 20.7 µM (inactive) | GI50 (SR): 23.9 µM (inactive) | GI50 (MDA-MB-231): 16.3 µM (inactive) | GI50 (SK-MEL-28): 19.9 µM (inactive) | GI50 (Malme-3M): 19.2 µM (inactive) | GI50 (Hs-578T): 27.4 µM (inactive) | GI50 (NCI-H23): 17.6 µM (inactive) | GI50 (MDA-MB-435): 17.9 µM (inactive) | GI50 (UO-31): 14.2 µM (inactive) | GI50 (UACC-62): 15.5 µM (inactive) | GI50 (NCI-H460): 17.9 µM (inactive) | GI50 (HCT-116): 14.2 µM (inactive) | GI50 (PC-3): 16.4 µM (inactive) | GI50 (SF-295): 17.2 µM (inactive) | GI50 (COLO 205): 18.2 µM (inactive) | GI50 (SNB-19): 16.3 µM (inactive) | GI50 (SK-MEL-2): 17.6 µM (inactive) | GI50 (RXF 393): 17.9 µM (inactive)
